From patent US9320723B2, “Methods of treating thyroid eye disease” (University of Rochester, priority 2010, dated 2016)

Key:
[1] = system: orbital fibroblasts; experiment: Measurement of intracellular cAMP (TR-FRET immunoassay); assay type: cell-based, human; conditions: PGD2 5 μM, BW245C 10 μM, up to 60 minutes
Method: cAMP levels were quantified using a time-resolved fluorescence resonance energy transfer (TR-FRET) immunoassay from Perkin Elmer (Waltham, Mass.) according to the manufacturer's protocol. Briefly, orbital fibroblasts were detached with a non-enzymatic cell dissociation solution (Versene, Invitrogen) and re-suspended in Stimulation Buffer (pH 7.4; 1×HBSS buffer containing 5 mmol/L HEPES buffer and 0.01%-0.1% BSA) containing 0.5 mM IBMX and labeled with the Alexa Fluor® 647-labeled anti-cAMP antibody. Finally, the cells were incubated with drugs at the indicated times. Following addition of the detection buffer, the amount of cAMP signal was measured.

[2] = system: human orbital fibroblasts; experiment: HA ELISA of culture medium of orbital fibroblasts treated with prostaglandins or drugs; assay type: cell-based; conditions: 18 hours, strains OF1 and OF2
Source text: Orbital fibroblasts: Primary orbital fibroblasts were isolated from TED patients undergoing orbital decompression surgery. The protocols for orbital biopsy and blood sample, described below, were approved by the Internal Review Board and informed, written consent was obtained from all patients. […] Fibroblasts were characterized by their adherent morphology, expression of vimentin and types I and III collagen and absence of CD45, factor VIII or cytokeratin. Fibroblasts were used at the earliest passage possible (between passages 4 to 10). Human T cells: Lymphocytes were isolated from 60 ml of peripheral blood obtained during orbital decompression surgery. Whole blood was separated over a Ficoll-Paque Plus Gradient (Amersham Biosciences, Piscataway, N.J.) to obtain peripheral blood mononuclear cells. T cells were enriched using CD3/CD28 T cell Expander beads (Invitogen). […] After that, 50 U/ml of recombinant interleukin-2 (rIL-2) was added to the culture and incubated for another 2-3 days. On day 5, cells were diluted to a concentration of 0.5×10^6 cells/ml in medium containing 50 U/ml rIL-2 and incubated for an additional 3-7 days. Cellular purity was assessed using an anti-CD3-PE antibody (BD Biosciences, San Jose, Calif.) and analyzed on a FACSCalibur flow cytometer (BD Biosciences).
(§1) Aliquots of culture medium were removed at indicated time points, centrifuged (5 min, 8,000×g at 4° C.) and HA levels quantified by enzyme-linked immunosorbent assay (ELISA) according to the manufacturer's protocol (R&D Systems). Briefly, samples were incubated in HA-binding protein (HABP)-coated microwells, allowing HA in samples to react with the immobilized HABP. After the removal of unbound molecules by washing, biotinylated-HABP was added to the microwells. Following a second wash, streptavidin-conjugated to horseradish peroxidase was added. After the last wash, the chromogenic substrate was added and HA levels were determined using a Varioskan Flash plate reader (Thermo Fisher Scientific, Milford, Mass.).

[3] = system: human orbital fibroblasts; experiment: qRT-PCR of HAS mRNA after PGD2 or BW245C; assay type: cell-based; conditions: 5 μM PGD2, 2 hours
Method: (§2) RNA was isolated from orbital fibroblasts or T cells using an RNeasy Mini kit (Qiagen). RNA was reverse transcribed to cDNA using iScript cDNA synthesis kit (Bio-Rad) and diluted 5-fold in RNase-free H2O. Forward and reverse primers for each gene are shown in Table I. RT-PCR: The PCR reaction was performed using Qiagen Fast Cycling PCR kit for 30 cycles in a Bio-Rad thermal cycler. The PCR product was visualized on a 5% acrylamide gel stained with ethidium bromide. Amplifications without reverse transcriptase were carried out as negative controls. qRT-PCR: qRT-PCR was performed in a Bio-Rad iCycler containing B-R SYBR Green SuperMix for IQ (Quanta Biosciences, Gaithersburg, Md.). Efficiency of the amplification was determined to be >90%.
(§3) Amplification of 7S ribosomal RNA was carried out for each cDNA (in triplicate) for normalization. Threshold cycle number (Ct) of amplification in each sample was determined by Bio-Rad software and the relative mRNA abundance was calculated as the Ct for amplification of a gene-specific cDNA minus average Ct for 7S, expressed as a power of 2; i.e., 2^ΔCt.

[4] = system: human orbital fibroblasts (OF1 and OF2); experiment: Agarose gel electrophoresis of HA in conditioned media; assay type: cell-based; conditions: 5 μM PGD2, 18 hours
Method: Fibroblasts were cultured to confluence in 10 cm^2 dishes in RPMI containing 10% FBS, followed by RPMI with 2% FBS for 3 days. Fibroblasts were then treated with 5 μM PGD2 or control (DMSO) for 18 hours. Cell culture supernatant was centrifuged (5 min at 8,000×g at 4° C.) and half of the sample digested with 1 TRU/ml Streptomyces hyaluronidase (Sigma) at 37° C. for 4 hours; the remainder of the sample was mock-digested. Following digestion with proteinase K (120 μg/ml) (Qiagen, Valencia, Calif.) at 37° C. for 4 hours, the samples were concentrated using Vivaspin 10,000 Da cut-off ultrafiltration spin column (Sartorius Stedim Biotech, Goettingen, Germany), washed with PBS and analyzed by 1% agarose electrophoresis. Select-HA HiLadder (Hyalose LLC, Oklahoma City, Okla.) and blue dextran (Sigma; molecular weight 2×10^6 Da) were also run as standards. The gel was stained with 0.005% Stains-All (Sigma) in 50% ethanol overnight at room temperature before being scanned on an HP scanner.

[5] = system: human orbital fibroblasts; conditions: previously reported (Feldon et al. 2006); cited from earlier work
[6] = system: orbital fibroblast strains OF1 and OF2; experiment: qRT-PCR of hyaluronidase mRNA (HYAL1-3); assay type: cell-based, human; conditions: 5 μM PGD2, 4 hours
Method: as §2, §3

[7] = system: orbital fibroblasts co-cultured with HMC-1 cells; experiment: Co-culture of HMC-1 mast cells with orbital fibroblasts, HA ELISA; assay type: cell-based, human; conditions: HMC-1 cells pretreated with HQL-79, ratio 20:1, compared to vehicle
Method: HMC-1 mast cells were allowed to proliferate in Iscove's Modified Dulbecco's Medium (IMDM) enriched with 5% FBS. Co-cultures were initiated by introducing HMC-1 cells to confluent cultures of fibroblasts as previously described (24). Mast cells were washed with RPMI-1640 medium (0.5% FBS) once before addition to the fibroblasts (1:1 ratio, unless otherwise specified). After 4 hours, the media and HMC-1 cells were removed by gently rinsing in PBS and fresh RPMI-1640 medium (0.5% FBS) was used to cover the cells. Alternatively, fibroblasts and mast cells were co-cultured in a transwell system (0.4 μm; Greiner Bio-one, New York, N.Y.) with fibroblasts being cultured on the bottom and the mast cells in the top chamber. The ratio of mast cells to fibroblasts was varied from 5:1 to 20:1.
as §1, with “After the removal of unbound molecules by washing, biotinylated-HABP was added to the microwells. Following a second wash, streptavidin-conjugated to horseradish peroxidase was added.” left out

[8] = system: HMC-1 cells; experiment: Measurement of PGD2 produced by mast cells (PGD2-MOX EIA); assay type: cell-based, human; conditions: HQL-79 100 μM 60 minutes, then A23187
Method: HMC-1 cells (1×10^6/well) were seeded into 6-well plates and cultured in IMDM medium with 5% FBS in the absence or presence of HQL-79 (H-PGDS inhibitor, 100 μM) at 37° C. for 60 minutes. The cells were then washed and resuspended in RPMI 1640 medium with 0.5% FBS. After 2 hours incubation, the cells were stimulated with 10 μM calcium ionophore A23187 for 30 minutes. The culture media were collected and PGD2 in the supernatants was quantified by PGD2-MOX EIA kits (Cayman Chemical).

[9] = system: human peripheral blood T cells adhering to orbital fibroblasts; experiment: T cell adhesion assay; assay type: cell-based; conditions: fibroblasts treated with 2 ng/ml TGF-β1, 24 hours
Method: Confluent orbital fibroblasts in a 96-well plate were serum starved and incubated with different concentrations of Pio or Rosi treated with or without 2 ng/ml TGF1 for 24 hours. In some cultures, orbital fibroblasts were treated with Streptomyces hyaluronidase (100 mU/ml at 37° C. for 1 hour) prior to the adhesion assay to deplete endogenous HA. Adhesion Test. Immediately before the adhesion assay, the conditioned medium of orbital fibroblasts was removed to eliminate treatments and secreted ECM. 1×10^5/well of Calcein AM labeled T cells were added to a 96-well plate with a confluent orbital fibroblast monolayer and allowed to adhere for 90 min at 4° C. as previously described. Plates were washed three times with the addition of 200 ul of PBS followed by plate inversion and gentle tapping to remove the wash solution. Fluorescence was measured with an excitation of 485 nm and detection of 535 nm, in a Varioskan Flash plate reader (Thermo Electron Corporation).

[10] = system: orbital fibroblasts; experiment: Immunofluorescence staining of HA with biotinylated HABP; assay type: cell-based, human; conditions: 2 ng/ml TGF-β1, 24 hours
Method: Orbital fibroblasts were cultured in 8-chamber slides (BD REF354108) and fixed in room temperature 3% paraformaldehyde in PBS and stained with 1 μg/ml biotinylated HABP (Seikagaku, Cape Cod) followed by Cy3-conjugated streptavidin (Jackson laboratories, West Grove, Pa.). F-actin was stained with Phalloidin (Molecular Probes). In some cultures, orbital fibroblasts were treated with Streptomyces hyaluronidase prior to staining T cells were stained with an anti-CD3 monoclonal antibody (clone UCHT, SouthernBiotech, Birmingham, Ala.) followed by a goat anti-mouse antibody labeled with Alexa-488 (Molecular Probes). DAPI (10 μg/ml, Anaspec, San Jose, Calif.) was used for nuclear staining.

[11] = system: human orbital fibroblasts; experiment: qRT-PCR of HAS mRNA after TGF-β1 with or without Pio or Rosi; assay type: cell-based; conditions: 2 ng/ml TGF-β1, 6 hours
Source text: RNA was isolated from orbital fibroblast strains using the RNeasy Mini kit according to the manufacturer's protocol (Qiagen, Valencia, Calif.) and reverse transcripted to cDNA using iScript cDNA synthesis kit (Bio-Rad, Hercules, Calif.). Primers for human HAS1, 2, 3 and 7S as well as qRT-PCR method to detect relative abundance of mRNA are identified supra. Primers for human PPARγ1 (NM138711) and PPARγ 2 (NM015869) mRNA were 5′-AAAGAAGCCGA-CACTAAACC-3′ (SEQ ID NO:3) (sense), 5′-CTTCCATTACGG-AGAGATCC-3′ (SEQ ID NO:4) (antisense) and, 5′-GCGATTC-CTTCACTGATAC-3′ (SEQ ID NO:5) (sense), 5′-CTTCCATT-ACGGAGAGATCC-3′ (SEQ ID NO:6) (antisense), respectively.

[12] = system: human orbital fibroblasts; experiment: Quantitation of secreted, pericellular and intracellular HA by ELISA, TGF-β1 treatment; assay type: cell-based
Method: Confluent monolayers of orbital fibroblasts were serum starved in 0.5% FBS RPMI-1640 medium for three days and pretreated with different concentrations of Pio or Rosi for 1 hour and then treated with or without 2 ng/ml TGF-β1 for 24 hours. After treatments, an aliquot of culture medium (secreted HA) was removed and centrifuged at 8,000×g at 4° C. for 5 minutes and the supernatant was saved for later analysis. The cells were washed twice with PBS and treated with 0.25% trypsin-EDTA solution (GIBCO, Invitrogen) at 37° C. for 5 minutes, the reaction was stopped by addition of culture medium and cell number was determined using a hemocytometer. The cells were then centrifuged and the supernatant was collected and incubated at 100° C. for 10 minutes to inactivate trypsin activity. This supernatant was saved for pericellular HA detection. The cell pellet was washed with PBS once and digested with 120 μg/ml proteinase K in 0.1% SDS/0.1 M Tris-HCl (pH 7.6) at 37° C. for 1 hour, and proteinase K was inactivated by incubation at 100° C. for 10 min. The cell lysate was centrifuged and supernatant analyzed for intracellular HA.
The amount of HA in each extract (secreted HA, pericellular HA and intracellular HA) was measured by ELISA based on the specific interaction of HA with HA binding protein (HABP). The HA detection kit was purchased from R&D system (Minneapolis, Minn.). Briefly, diluted samples were incubated in HABP-coated microwells, allowing HA present in samples to react with the immobilized HABP. After extensive washing, biotinylated HABP was added to the microwells to form complexes with bound HA. Following another round of washing, streptavidin conjugated horseradish peroxidase was added. After a brief incubation period and washing, chromogenic substrate was added and HA levels were determined using a Varioskan Flash plate reader (Thermo Fisher Scientific, Milford, Mass.). A fraction of the samples were pretreated with Streptomyces hyaluronidase (2 U/ml at 37° C. for 2 hour) before subjected to the ELISA assay as a negative control. Furthermore, an additional 50 ng/ml (final concentration) of free soluble HA was added to a fraction of the cell lysate samples to confirm that there are no inhibitory factors present and that the assays show the expected additivity when a known amount of exogenous HA is included.

[13] = 2 ng/ml TGF-β1, 24 hours, strain #1, compared to vehicle

Compound: CCCCC[C@H](O)/C=C/[C@H]1C(=O)C[C@H](O)[C@@H]1C/C=C\CCCC(=O)O [PGD2]
- intracellular cAMP production [1]: significantly increased intracellular cAMP production within 15 to 30 minutes
- concentration yielding the largest induction of HA [2]: 5 µM
- HA synthesis (HA ELISA) ([2]; increasing concentrations): significantly increased HA synthesis by both fibroblast strains in a dose-dependant manner
- HAS1, HAS2 and HAS3 mRNA [3]: the mRNA for all three HAS isoforms increased significantly
- increase in HAS1 mRNA ([3]; compared to time 0): 2807±213
- HA in conditioned media (agarose gel) [4]: increased HA compared with vehicle
- adipogenesis in human orbital fibroblasts [5]: induce adipogenesis
- HYAL1, HYAL2 and HYAL3 mRNA ([6]; strain OF1): significant induction in HYAL1, HYAL2 and HYAL3 mRNA
- hyaluronidase mRNA expression ([6]; strain OF2): failed to significantly increase hyaluronidase mRNA expression

Compound: c1ccc(C(OC2CCN(CCCc3nnn[nH]3)CC2)c2ccccc2)cc1 [HQL-79, 4-benzhydryloxy-1-[3-(1H-tetrazol-5-yl)-propyl]-piperidine]
- production of HA by orbital fibroblasts in transwell co-culture [7]: significantly attenuated the production of HA by orbital fibroblasts
- level of PGD2 in activated HMC-1 cells [8]: significantly reduced the level of PGD2 in activated HMC-1 cells

Compound: TGF-β1: Recombinant human TGF-β1 purchased from Calbiochem
- adhesion of T cells to orbital fibroblasts [9]: significantly increased compared to untreated control fibroblasts
- HA staining (immunofluorescence) [10]: HA staining is more pronounced and forms microvillus-like protrusions
- HAS3 mRNA levels [11]: remained unchanged
- increase of HAS1 mRNA levels [11]: about 50 fold
- increase of HAS2 mRNA levels [11]: ~6 fold
- intracellular HA levels ([12]; 2 ng/ml TGF-β1, 24 hours): had no effect on intracellular HA levels
- increase of pericellular HA levels [12, 13]: 8.34±1.33 fold
- increase of secreted HA levels [12, 13]: 12.16±0.15 fold
- share of newly synthesized HA secreted into the ECM ([12]; TGF-β1 mediated): about 70%
- secreted HA compared with pericellular HA ([12]; fibroblasts treated with TGF-β1, strain #1): 2.31±0.36 fold
